Reference: US20200237695A1, “LEVOTHYROXINE LIQUID FORMULATIONS” (Hikma Pharmaceuticals USA Inc., priority 2019, published 2020)
≈ marks a conversion by molar mass, not a printed value.

Experiment: Levothyroxine solubilization in aqueous amino acid solutions
Type: physicochemical
Details: aqueous buffer
Description: The formulations can further include one or more pH adjusters, for example, a single pH adjuster. The pH adjuster can be an amino acid, which can be the sole amino acid and pH adjuster in the formulation. The pH adjuster serves to aid in adjusting the pH of the aqueous formulation and selectively the solubilization of levothyroxine or any salt thereof in the liquid formulation. In one or more embodiments, the pH adjuster is arginine. In water, a concentration of arginine from about 1 mg/mL to about 20 mg/mL adjust the pH of water to about 10.3 to about 11.

## N[C@@H](Cc1cc(I)c(Oc2cc(I)c(O)c(I)c2)c(I)c1)C(=O)O [levothyroxine, 4-(4-hydroxy-3,5-diiodophenoxy)-3,5-diiodo-L-phenylalanine]
Aqueous arginine solution, arginine in aqueous solutions
  solubility: > 500 µg/mL
Aqueous aspartic acid solution, aspartic acid 1 mg/mL in water
  solubility: 450 µg/mL (≈ 579 µM)
Aqueous aspartic acid solution, aspartic acid 4 mg/mL in water
  solubility: 100 µg/mL (≈ 129 µM)
